Results published in PubChem BioAssay (NCI).
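Values below derive from 48-hour exposures of cells grown in 96-well plates, with endpoints linearly interpolated between the two concentrations bracketing the appropriate inhibition level. Abbreviation: GI50, concentration required for 50% inhibition of growth. TGI denotes the concentration required for complete inhibition of growth.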

How the values were obtained:
Test in all cases: NCI-60 cell line screen, 48 h
[1] = system: HS 578T breast
[2] = system: HOP-92 NSCLC
[3] = system: MCF7 breast
[4] = system: CAKI-1 renal
[5] = system: NCI-H23 lung
[6] = system: NCI-H226 lung
[7] = system: A549 NSCLC
[8] = system: UO-31 renal
[9] = system: UACC-257 melanoma
[10] = system: SF-295 CNS
[11] = system: COLO 205 colon
[12] = system: SK-MEL-5 melanoma
[13] = system: HOP-62 NSCLC
[14] = system: HCT-116 colon
[15] = system: K-562 leukemia
[16] = system: DU-145 prostate
[17] = system: SN12C renal
[18] = system: MDA-MB-231 breast
[19] = system: SF-268 CNS
[20] = system: LOX IMVI melanoma
[21] = system: M14 melanoma
[22] = system: CCRF-CEM leukemia
[23] = system: KM12 colon
[24] = system: SNB-75 CNS
[25] = system: ACHN renal
[26] = system: RXF 393 renal
[27] = system: A498 renal
[28] = system: EKVX NSCLC
[29] = system: UACC-62 melanoma
[30] = system: IGROV1 ovarian
[31] = system: OVCAR-4 ovarian
[32] = system: HCT-15 colon
[33] = system: NCI-H460 lung
[34] = system: SR leukemia
[35] = system: RPMI-8226 leukemia
[36] = system: OVCAR-8 ovarian
[37] = system: U251 CNS
[38] = system: NCI-H522 lung
[39] = system: MDA-MB-435
[40] = system: T-47D breast
[41] = system: MOLT-4 leukemia
[42] = system: SF-539 CNS
[43] = system: OVCAR-5 ovarian
[44] = system: PC-3 prostate
[45] = system: SNB-19 CNS
[46] = system: SK-OV-3 ovarian
[47] = system: HCC-2998 colon
[48] = system: 786-0 renal
[49] = system: MALME-3M melanoma
[50] = system: SK-MEL-28 melanoma
[51] = system: BT-549 breast
[52] = system: HT29 colon
[53] = system: SK-MEL-2 melanoma
[54] = system: SW-620 colon
[55] = system: HL-60(TB) leukemia
[56] = system: OVCAR-3 ovarian
[57] = system: TK-10 renal
[58] = system: NCI/ADR-RES ovarian

COc1c(B(O)O)cccc1-c1nc2ccc3[nH]ncc3c2c2c1CCCC2
GI50 [1]: 0.0622 µM
TGI [1]: 7.92 µM
TGI [2]: 6.56 µM
GI50 [3]: 2.04 µM
TGI [3]: 13 µM
GI50 [4]: 0.0171 µM
TGI [4]: 0.252 µM
GI50 [5]: 2.48 µM
TGI [5]: 9.28 µM
GI50 [6]: 1.51 µM
TGI [6]: 12.2 µM
GI50 [7]: 2.55 µM
TGI [7]: > 34.9 µM
GI50 [8]: 0.262 µM
TGI [8]: 14.3 µM
GI50 [9]: 2.88 µM
TGI [9]: 24.6 µM
GI50 [10]: 1.89 µM
TGI [10]: 12.6 µM
GI50 [11]: 2.2 µM
TGI [11]: 6.32 µM
GI50 [12]: 3.18 µM
TGI [12]: 12.5 µM
GI50 [13]: 1.31 µM
TGI [13]: 19.6 µM
GI50 [14]: 0.473 µM
TGI [14]: > 96.7 µM
GI50 [15]: 3.4 µM
TGI [15]: > 100 µM
GI50 [16]: 2.23 µM
TGI [16]: 25.9 µM
GI50 [17]: 1.77 µM
TGI [17]: 42.7 µM
GI50 [18]: 0.0201 µM
TGI [18]: 25.1 µM
GI50 [19]: 1.95 µM
TGI [19]: 12.5 µM
GI50 [20]: 1.38 µM
TGI [20]: 6.28 µM
GI50 [21]: 4.06 µM
TGI [21]: 13.2 µM
GI50 [22]: 0.544 µM
TGI [22]: > 49.7 µM
GI50 [23]: 2.25 µM
TGI [23]: 10.9 µM
GI50 [24]: 0.0307 µM
TGI [24]: 0.382 µM
GI50 [25]: 1.77 µM
TGI [25]: 16.8 µM
GI50 [26]: 0.0225 µM
TGI [26]: 1.25 µM
GI50 [27]: 0.491 µM
TGI [27]: 3.88 µM
GI50 [28]: 2.65 µM
TGI [28]: 15.9 µM
GI50 [29]: 2.71 µM
TGI [29]: 10.2 µM
GI50 [30]: 2.25 µM
TGI [30]: 14.3 µM
GI50 [31]: 4.23 µM
TGI [31]: 27.1 µM
GI50 [32]: 2.88 µM
TGI [32]: 14.2 µM
GI50 [33]: 1.43 µM
TGI [33]: 11.2 µM
GI50 [34]: 1.13 µM
TGI [34]: 13.9 µM
GI50 [35]: 0.936 µM
TGI [35]: 7.01 µM
GI50 [36]: 2.39 µM
TGI [36]: > 38.8 µM
GI50 [37]: 2.69 µM
TGI [37]: 18.5 µM
GI50 [38]: 1.41 µM
TGI [38]: 10.5 µM
GI50 [39]: 3.45 µM
TGI [39]: 12.1 µM
GI50 [40]: 3.36 µM
TGI [40]: > 37.7 µM
GI50 [41]: 1.57 µM
TGI [41]: > 34.6 µM
GI50 [42]: 0.133 µM
TGI [42]: 2.81 µM
GI50 [43]: 2.45 µM
TGI [43]: 25.2 µM
GI50 [44]: 2.41 µM
TGI [44]: 40.6 µM
GI50 [45]: 2.68 µM
TGI [45]: 28.1 µM
GI50 [46]: 1.19 µM
TGI [46]: 10.4 µM
GI50 [47]: 2.35 µM
TGI [47]: 6.12 µM
GI50 [48]: 1.2 µM
TGI [48]: 11.9 µM
GI50 [49]: 3.39 µM
TGI [49]: 6.86 µM
GI50 [50]: 3.42 µM
TGI [50]: 10.2 µM
GI50 [51]: 0.122 µM
TGI [51]: 2.56 µM
GI50 [52]: 3.17 µM
TGI [52]: 16.4 µM
GI50 [53]: 3.4 µM
TGI [53]: 8.78 µM
GI50 [54]: 1.17 µM
TGI [54]: 12.1 µM
GI50 [55]: 0.658 µM
TGI [55]: 4.87 µM
GI50 [56]: 3.43 µM
TGI [56]: 12.3 µM
GI50 [57]: 0.0448 µM
TGI [57]: 16.4 µM
GI50 [58]: 2.25 µM
TGI [58]: 15.2 µM

Cc1ccc(N=Nc2c(O)ccc3n[nH]nc23)cc1
GI50 [1]: 10.9 µM
TGI [1]: 58.4 µM
GI50 [2]: 15.4 µM
TGI [2]: 83.8 µM
GI50 [3]: 9.25 µM
TGI [3]: 97.5 µM
GI50 [4]: 4.63 µM
TGI [4]: 38.9 µM
GI50 [5]: 5.65 µM
TGI [5]: 38.3 µM
GI50 [6]: 15.3 µM
TGI [6]: > 100 µM
GI50 [7]: 14.2 µM
TGI [7]: > 100 µM
GI50 [8]: 11.7 µM
TGI [8]: 44.9 µM
GI50 [9]: 5.09 µM
TGI [9]: 39.5 µM
GI50 [10]: 11.3 µM
TGI [10]: 38 µM
GI50 [11]: 22.4 µM
TGI [11]: 73.9 µM
GI50 [12]: 3.19 µM
TGI [12]: 13.2 µM
GI50 [13]: 28 µM
TGI [13]: > 100 µM
GI50 [14]: 12.5 µM
TGI [14]: > 100 µM
GI50 [15]: 9.06 µM
TGI [15]: > 100 µM
GI50 [16]: 16.1 µM
TGI [16]: 44.9 µM
GI50 [17]: 17 µM
TGI [17]: > 100 µM
GI50 [18]: 13 µM
TGI [18]: > 100 µM
GI50 [19]: 14.9 µM
TGI [19]: 77.5 µM
GI50 [20]: 12.7 µM
TGI [20]: > 100 µM
GI50 [21]: 27.8 µM
TGI [21]: > 100 µM
GI50 [22]: 4.13 µM
TGI [22]: 55.6 µM
GI50 [23]: 10.8 µM
TGI [23]: 37.9 µM
GI50 [24]: 17.4 µM
TGI [24]: > 100 µM
GI50 [25]: 11.5 µM
TGI [25]: 69.2 µM
GI50 [26]: 13.2 µM
TGI [26]: 82.1 µM
GI50 [27]: 1.99 µM
TGI [27]: 42.2 µM
GI50 [28]: 11.6 µM
TGI [28]: 50 µM
GI50 [29]: 4.52 µM
TGI [29]: 47.7 µM
GI50 [30]: 12.2 µM
TGI [30]: 50.6 µM
GI50 [31]: 9.3 µM
TGI [31]: > 100 µM
GI50 [32]: 12.3 µM
TGI [32]: 92.4 µM
GI50 [33]: 13.9 µM
TGI [33]: 52.9 µM
GI50 [34]: 14 µM
TGI [34]: 64.8 µM
GI50 [35]: 5.52 µM
TGI [35]: 55.4 µM
GI50 [36]: 16.5 µM
TGI [36]: 75 µM
GI50 [37]: 11.4 µM
TGI [37]: > 100 µM
GI50 [38]: 10.1 µM
TGI [38]: 45.5 µM
GI50 [39]: 4.47 µM
TGI [39]: 37.5 µM
GI50 [40]: 10.2 µM
TGI [40]: 57.7 µM
GI50 [41]: 2.89 µM
TGI [41]: 12.8 µM
GI50 [42]: 15.8 µM
TGI [42]: > 100 µM
GI50 [43]: 43.5 µM
TGI [43]: > 100 µM
GI50 [44]: 5.99 µM
TGI [44]: > 100 µM
GI50 [45]: 20.7 µM
TGI [45]: > 100 µM
GI50 [46]: 10.3 µM
TGI [46]: > 100 µM
GI50 [47]: 26.2 µM
TGI [47]: > 100 µM
GI50 [48]: 20.3 µM
TGI [48]: > 100 µM
GI50 [49]: 8.17 µM
TGI [49]: 48 µM
GI50 [50]: 20.6 µM
TGI [50]: > 100 µM
GI50 [51]: 21.2 µM
TGI [51]: > 100 µM
GI50 [52]: 31.8 µM
TGI [52]: > 100 µM
GI50 [53]: 19 µM
TGI [53]: 59.4 µM
GI50 [54]: 12.3 µM
TGI [54]: > 100 µM
GI50 [55]: 7.32 µM
TGI [55]: 57.8 µM
GI50 [56]: 4.31 µM
TGI [56]: 22.2 µM
GI50 [57]: 11.7 µM
TGI [57]: 73.5 µM
GI50 [58]: 10.2 µM
TGI [58]: 73.2 µM
